Reference: the supplement of paper PMC6723410

The molecules below were run on GUMC-403 (assay: viability at highest tested concentration (max response) relative to DMSO (% of DMSO control); higher = less cytotoxic). Conditions: library / dose series: MIPE library, 11-point 1:3 dilution; top concentration 23 µM; 48 h.
In short: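 In 1536-well plates, 700 GUMC-403 papilloma cells per well, taken from a patient and grown by conditional reprogramming, were seeded in 5 μL F + Y medium and incubated overnight at 37 °C. Compounds were pinned in at 23 nL in an 11-point 1:3 series, and left for 48 h before CellTiter-Glo luminescence was read on a ViewLux against vehicle (100%) and empty (0%) wells. Reported values are viability at the highest tested concentration relative to vehicle control.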
Cc1ccc([S+](=O)([O-])Nc2nc3ccccc3nc2Nc2ccc3nsnc3c2)cc1 was tested, and the viability was 66.3.

Same assay, conditions: library / dose series: MIPE library, 11-point 1:3 dilution; top concentration 46.1 µM; 48 h
OC[C@H]1O[C@H](C[C@@H]1O)N2\C=C(F)/C(=O)NC2=O was tested, and the viability was 65.7.
CC(C)=CC[C@@H](O)C/1=C/C(=O)C2=C(O)C=CC(=C2C1=O)O showed a viability of 78.5.
OCc1ccc(-c2ccc(-c3ccc(CO)s3)o2)s1 showed a viability of 117.
In the case of O=C(Nc1ccccc1Br)N[C@@H]1CCN(c2ccc(C(F)(F)F)cn2)C1, the viability was 114.
For C[C@H](NC(=O)Cc1cc(F)cc(F)c1)C(=O)N[C@@H]1C(=O)N(C)c2ccccc2-c2ccccc21, the viability was 108.
Work on CCOC(=O)\C1=C\[C@@H](OC(CC)CC)[C@H](NC(C)=O)[C@@H](N)C1 yielded a viability of 123.
With NCCc1ccc(O)c(O)c1 the viability was 108.
CN(C1CCc2c(c3ccccc3n2CC(=O)O)C1)[S+](=O)([O-])c1ccc(F)cc1 (configuration not stated) showed a viability of 114.
With Cc1c(N)nc([C@H](CC(N)=O)NC[C@@H](N)C(N)=O)nc1C(=O)N[C@H](C(=O)N[C@@H](C)[C@H](O)[C@@H](C)C(=O)N[C@@H](C(=O)NCCc1nc(-c2nc(C(=O)NCCC[S+](C)C)cs2)cs1)[C@@H](C)O)C(O[C@H]1O[C@H](CO)[C@H](O)[C@@H](O)[C@H]1O[C@H]1O[C@H](CO)[C@@H](O)[C@H](OC(N)=O)[C@@H]1O)c1c[nH]cn1 (some centres not stated) the viability was 84.5.
COc1ccc(Cc2nccc3cc(OC)c(OC)cc23)cc1OC showed a viability of 109.
Molecule CC/1=C/C(=O)N(O)/C(=C1)C2CCCCC2 has a viability of 27.2.
In the case of CN(C)c1nc(Cc2ccc(NC(=O)c3ccc(C(F)(F)F)cc3)cc2)nc(N(C)C)c1CC(=O)O, the viability was 127.
CC(NC1=CC=CC=C1)C\2=C\C(=C/N3C(=O)\C=C(/N=C23)N4CCOCC4)C (configuration not stated) showed a viability of 79.7.
Cc1nc2ccc(CN(C)c3ccc(C(=O)N[C@@H](CCC(=O)O)C(=O)O)s3)cc2c(=O)[nH]1 showed a viability of 116.
In the case of Oc1ccc2c3c1O[C@H]1c4[nH]c5c(c4C[C@@]4(O)[C@@H](C2)N(CC2CC2)CC[C@]314)C[C@@]1(O)[C@H]2Cc3ccc(O)c4c3[C@@]1(CCN2CC1CC1)[C@H]5O4, the viability was 142.
CCCCCCCCCC(=O)N[C@@H](Cc1c[nH]c2ccccc12)C(=O)N[C@H](CC(N)=O)C(=O)N[C@@H](CC(=O)O)C(=O)N[C@@H]1C(=O)NCC(=O)N[C@@H](CCCN)C(=O)N[C@@H](CC(=O)O)C(=O)N[C@H](C)C(=O)N[C@@H](CC(=O)O)C(=O)NCC(=O)N[C@H](CO)C(=O)N[C@@H]([C@@H](C)CC(=O)O)C(=O)N[C@@H](CC(=O)c2ccccc2N)C(=O)O[C@@H]1C gave a viability of 101.
With C=C[C@H]1CN2CCC1C[C@H]2[C@H](O)c1ccnc2ccccc12 (some centres not stated) the viability was 101.
N#Cc1c(N(CC(=O)[O-])CC(=O)[O-])sc(C(=O)[O-])c1CC(=O)[O-].O.O.O.O.O.O.O.[Sr+2].[Sr+2] was tested, and the viability was 112.
OCCN1CCN(CCCN2c3ccccc3Sc3ccc(C(F)(F)F)cc32)CC1 gave a viability of 97.2.
Molecule CCC(=O)O[C@@]1(CC[C@H]2[C@@H]3CCC/4=C/C(=O)CC[C@]4(C)[C@H]3CC[C@]12C)C(=O)CO has a viability of 119.
In the case of O=c1[nH]cnc2c1ncn2[C@H]1CC[C@@H](CO)O1, the viability was 144.
For COc1cc2c(NC3CCN(C(C)C)CC3)nc(C3CCCCC3)nc2cc1OCCCN1CCCC1, the viability was 82.3.
CC(=O)Nc1sc2c(c1-c1nc3ccccc3s1)CNC2 was tested, and the viability was 86.3.
For CCOC(=O)c1c(C)n(C)c2ccc(O)cc12, the viability was 108.
In the case of CC[C@H]1OC(=O)[C@H](C)[C@@H](O[C@H]2C[C@@](C)(OC)[C@@H](O)[C@H](C)O2)[C@H](C)[C@@H](O[C@@H]2O[C@H](C)C[C@H](N(C)C)[C@H]2O)[C@](C)(O)C[C@@H](C)/C(=N\OCOCCOC)[C@H](C)[C@@H](O)[C@]1(C)O, the viability was 83.3.
In the case of CCCCN(CCCC)CCC(O)c1cc2c(Cl)cc(Cl)cc2c2cc(C(F)(F)F)ccc12 (configuration not stated), the viability was 107.
Molecule CCC(C)N(C)C(=O)c1cc2ccccc2c(-c2ccccc2Cl)n1 (configuration not stated) has a viability of 96.7.
For CC[N+](CC)(CC)CCOc1cccc(OCC[N+](CC)(CC)CC)c1OCC[N+](CC)(CC)CC, the viability was 97.6.
For O=C(Cc1ccc(-c2ccc(OCCN3CCOCC3)cc2)cn1)NCc1ccccc1, the viability was 104.
Molecule COc1ccc2c(OCc3nnc4ccc(-c5ccccc5)nn34)ccnc2c1 has a viability of 126.
Clc1ccc(C2(c3ccc(-c4cn[nH]c4)cc3)CCNCC2)cc1 showed a viability of 59.9.
For Cc1c(C(=O)c2cccc3ccccc23)c2cccc3c2n1[C@H](CN1CCOCC1)CO3, the viability was 76.9.
For CN(C)/[N+]([O-])=N/Oc1cc(ON[N+](=O)N2CCN(C(=O)c3cc(Cc4n[nH]c(=O)c5ccccc45)ccc3F)CC2)c([N+](=O)[O-])cc1[N+](=O)[O-], the viability was 108.
For COC1=C2OC(=O)\C=C/C2=CC3=C1OC=C3, the viability was 102.
For COc1cc(C)c(/C=C/C(C)=C/C=C/C(C)=C/C(=O)O)c(C)c1C, the viability was 101.
CC(C)(C)C(=O)Oc1ccc([S+](=O)([O-])Nc2ccccc2C(=O)NCC(=O)O)cc1 gave a viability of 113.
Work on Cc1ccccc1N1C(=O)c2cc([S+](N)(=O)[O-])c(Cl)cc2NC1C (configuration not stated) yielded a viability of 105.
OC[C@H]1O[C@H](C[C@@H]1O)N2/C=C(C(=O)NC2=O)/C(F)(F)F showed a viability of 103.
O=C1C[C@@H](c2ccc(O)cc2)Oc2cc(O)cc(O)c21 gave a viability of 113.
Cc1cn(-c2cc(NC(=O)c3ccc(C)c(Nc4nccc(-c5cccnc5)n4)c3)cc(C(F)(F)F)c2)cn1 gave a viability of 130.
Molecule COc1cnc(N[S+](=O)([O-])c2ccc(N)cc2)nc1 has a viability of 115.
C[N+]1(C)[C@@H]2CC(OC(=O)C(O)(c3cccs3)c3cccs3)C[C@H]1[C@@H]1O[C@@H]12 (some centres not stated) gave a viability of 127.
COc1cc2c(Nc3ccc(Br)cc3F)ncnc2cc1OCC1CCN(C)CC1 gave a viability of 52.2.
C=CC(=O)N1CCC[C@@H](n2nc(-c3ccc(Oc4ccccc4)cc3)c3c(N)ncnc32)C1 gave a viability of 83.3.
O=C(O)c1ccc2cc(-c3ccc(O)c(C45CC6CC(CC(C6)C4)C5)c3)ccc2c1 was tested, and the viability was 109.
Cc1onc(-c2ccccc2Cl)c1C(=O)N[C@@H]1C(=O)N2[C@@H]1SC(C)(C)[C@@H]2C(=O)[O-] was tested, and the viability was 111.
Work on COc1ccc(C(=O)CC2(O)C(=O)Nc3c(Cl)ccc(Cl)c32)cc1 (configuration not stated) yielded a viability of 113.
In the case of COc1cc(C)c(Sc2cnc(NC(=O)c3ccc(CNC(C)C(C)C)cc3)s2)cc1C(=O)N1CCN(C(C)=O)CC1 (configuration not stated), the viability was 85.7.
CNC1[C@@H](O)C(O[C@@H]2C(O)C(O[C@H]3O[C@H]([C@@H](C)NC)CC[C@H]3N)[C@@H](N)C[C@H]2N)OC[C@]1(C)O (some centres not stated) showed a viability of 101.
With Cc1c(-c2cccc3c(CCCOc4cccc5ccccc45)c(C(=O)O)n(Cc4cccnc4)c23)c(COc2ccc(N3CCN([S+](=O)([O-])N(C)C)CC3)cc2)nn1C the viability was 90.8.
N#Cc1c(C2CCNCC2)cc(-c2c(O)cccc2OCC2CC2)nc1N showed a viability of 103.
Work on CN(C)[C@@H](CCOc1cccc2ccccc12)c1ccccc1 yielded a viability of 92.3.
Work on CC(C)CNc1ccnc(NCc2csc(-c3ccccc3)n2)n1 yielded a viability of 100.
NCC1CCC(C(=O)O)CC1 (configuration not stated) was tested, and the viability was 115.
For CN(C)CCc1c[nH]c2ccc(C[S+](=O)([O-])N3CCCC3)cc12, the viability was 78.5.
Molecule COc1ccc2nc3cc(Cl)ccc3c(Nc3cc(CN4CCCC4)c(O)c(CN4CCCC4)c3)c2n1 has a viability of 116.
With COc1ccc(/C=C\c2cc(OC)c(OC)c(OC)c2)cc1O the viability was 93.7.
CCc1cccc(CC)c1NC(=O)N1Cc2[nH]nc(NC(=O)c3ccc(N4CCN(C)CC4)cc3)c2C1 showed a viability of 87.2.
COC(=O)[C@@H](N)CCCNC(=N)N[N+](=O)[O-] showed a viability of 107.
CC(C)OC1=CC=C2C(=C1)O\C=C(/C2=O)C3=CC=CC=C3 showed a viability of 111.
For CCN(C(=O)C/1=C(O)/C2=C(C=CC=C2Cl)N(C)C1=O)C3=CC=CC=C3, the viability was 119.
CC1=CC2=C(O1)C(=C3OC(=O)\C=C(C)/C3=C2)C gave a viability of 111.
For Cn1cc(-c2ccc3nnc(Sc4ccc5ncccc5c4)n3n2)cn1, the viability was 108.
Work on CN1/C=C(\N=C(NC2=CC=C(C=C2)C(=O)N3CCOCC3)/C1=O)/C4=C(C)C(=CC=C4)NC(=O)C5=CC=C(C=C5)C(C)(C)C yielded a viability of 117.
CCCC(C)(COC(N)=O)COC(=O)NC(C)C (configuration not stated) showed a viability of 117.
c1ccc2[nH]c(-c3cscn3)nc2c1 showed a viability of 124.
With COc1ccc(N(C(=O)Oc2c(C)cccc2C)c2ccnc(Nc3ccc(N4CCN(C)CC4)cc3)n2)c(OC)c1 the viability was 83.2.
Molecule O=P(O)(O)C(O)(Cc1cccnc1)P(=O)(O)[O][Na] (configuration not stated) has a viability of 123.
C[C@H]1CN(C[C@@H](C)O1)CC(=O)NC2=CC=C3SC4=C(CC3=C2)C=CC=C4\C5=C\C(=O)\C=C(/O5)N6CCOCC6 showed a viability of 115.
Molecule C[N]1C=C(C=N1)C2=CC=C3N=CC\4=C(N(C(=O)\C=C4)C5=CC6=C(CCN6C(=O)C=C)C=C5)C3=C2 has a viability of 104.
Molecule O[C@@H]1[C@@H](O)[C@H](O[C@@H]([C@H]1O)C(O)=O)OC2=C(O)C(=C3C(=O)\C=C(/OC3=C2)C4=CC=CC=C4)O has a viability of 133.
Molecule CC(=O)Oc1cc2c(s1)CCN(C(C(=O)C1CC1)c1ccccc1F)C2.Cl (configuration not stated) has a viability of 114.
Cc1cncc2cccc([S+](=O)([O-])N3CCCN(C(=O)CN)C[C@@H]3C)c12 was tested, and the viability was 138.
With Cc1cc(O)c2c(c1)C(=O)c1cccc(O)c1C2=O the viability was 95.5.

Same assay, conditions: library / dose series: MIPE library, 11-point 1:3 dilution; top concentration 92.2 µM; 48 h
CNC[C@H](O)c1ccc(O)c(O)c1 gave a viability of 104.
In the case of Cc1cc(Nc2cc(N3CCN(C)CC3)nc(/C=C/c3ccccc3)n2)n[nH]1, the viability was 54.1.
